Results taken from PubChem BioAssay (NCI).
“And” between values parts separate entries of the source, which are not always exact repeats. Equal values may be shown once.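 Step 1: Grow cells in 96-well plates. Step 2: Expose to compound for 48 hours at 5 concentrations. Step 3: Interpolate endpoints linearly; if unreached, use highest concentration. Abbreviation: GI50, concentration required for 50% inhibition of growth. Definition used: TGI = concentration required for complete inhibition of growth.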

Legend:
Test in all cases: inhibition of tumour cell growth, NCI panel, 48 h
HS 578T breast = system: HS 578T breast
NCI/ADR-RES ovarian = system: NCI/ADR-RES ovarian
MCF7 breast = system: MCF7 breast
MDA-MB-435 = system: MDA-MB-435
KM20L2 colon = system: KM20L2 colon
LXFL 529 NSCLC = system: LXFL 529 NSCLC
MDA-N = system: MDA-N

SMILES | GI50 (HS 578T breast) [µM] | TGI (HS 578T breast) | GI50 (NCI/ADR-RES ovarian) [µM] | TGI (NCI/ADR-RES ovarian) | GI50 (MCF7 breast) [nM] | TGI (MCF7 breast) | GI50 (MDA-MB-435) [nM] | TGI (MDA-MB-435) | GI50 (KM20L2 colon) [µM] | TGI (KM20L2 colon) [µM] | GI50 (LXFL 529 NSCLC) [µM] | TGI (LXFL 529 NSCLC) [µM] | TGI (MDA-N) | GI50 (MDA-N) [µM]
O=c1cc(-c2ccccc2)oc2cc(OCc3cn(Cc4ccc(F)cc4)nn3)cc(O)c12 | 6.26 | > 100 µM | 5.57 | > 100 µM | – | – | – | – | – | – | – | – | – | –
CCCCCn1ncc(-c2c(O)c(O)cc3c(O)c(-c4c(C)cc5c(-c6cnn(CCCCC)n6)c(O)c(O)cc5c4O)c(C)cc23)n1 | 0.152 | 8.87 µM | 0.903 | 5.32 µM | 87.4 | 4.24 µM | 109 | 5.02 µM | – | – | – | – | – | –
CCC(=O)[O-].CCC(=O)[O-].N.N.N.N.[Co+3].[O-][Cl+3]([O-])([O-])[O-] | – | – | – | – | – | – | – | – | > 100 | > 100 | > 100 | > 100 | – | –
C=C(C)[C@@H]1CC[C@]2(c3ncc(C)o3)CC[C@]3(C)[C@H](CC[C@@H]4[C@@](C)(CCC#N)[C@H](C(=C)C)CC[C@]43C)[C@@H]12 | 4.3 | 19.4 µM | 3.33 | 11.9 µM | 2870 | 10.5 µM | 4870 | 18 µM | – | – | – | – | – | –
COc1ccc2c3c([nH]c2c1[N+](=O)[O-])C(C)N(C(=O)/C=C/c1ccccc1)CC3 (configuration not stated) | – | – | – | – | – | – | – | – | – | > 100 | – | > 100 | – | –
COc1ncnc2c1ncn2C/C(Br)=C(\Br)CCl | – | – | 6.12 | 18.9 µM | 1430 | 3.06 µM | 2940 | 11.5 µM | – | – | – | – | – | –
CN1CCN(c2ccc(NC3=C(Cl)C(=O)c4ncccc4C3=O)cc2C(F)(F)F)CC1 | 3.31 | 42.3 µM | 2.46 | 7.47 µM | 1700 | 4.23 µM | 1790 | 3.3 µM | – | – | – | – | – | –
CCN(CCc1ccc(F)cc1)c1ccc(CO)c(Cl)c1 | 11.5 | 32.4 µM | 11.8 | 28.1 µM | 4720 | 19.9 µM | 15600 | 31.8 µM | – | – | – | – | – | –
CCCCn1c(=O)c(/C=C/C(=O)/C=C/c2ccc(O)c(OC)c2)cc2ccc(Cl)cc21 | 3.18 | 14.8 µM | 2.9 | 10.7 µM | 1880 | 10.8 µM | 1770 | 4.17 µM | – | – | – | – | – | –
Cc1occc1C(=S)Nc1ccc(Cl)c(C(=O)OCC2CC2)c1 | – | > 100 µM | – | > 100 µM | – | > 100 µM | – | > 100 µM | – | – | – | – | > 100 µM | –
O=C(/C=C/c1ccccc1)c1ccc(O)c(CN2CCN(c3cc4c(cc3F)c(=O)c(C(=O)O)cn4C3CC3)CC2)c1 | 0.577 | > 100 µM | 7.86 | > 100 µM | 688 | > 100 µM | 1500 | 25.7 µM | – | – | – | – | – | –
COc1cc([N+](=O)[O-])c(S(=O)(=O)O)cc1-n1nc(-c2ccccc2)n[n+]1-c1cc(S(=O)(=O)[O-])c([N+](=O)[O-])cc1OC | – | > 100 µM | – | > 100 µM | – | > 100 µM | – | > 100 µM | – | – | – | – | > 100 µM | –
CCc1nc2cc(/C=C/C(=O)NO)c(F)cc2c(=O)n1CCc1ccccc1 | 2.95 | 45.2 µM | 0.227 | 2.54 µM | 407 | 15.1 µM | 1200 | 10.2 µM | – | – | – | – | – | –
COc1cc2c3c(n(CCCn4cccn4)c(=O)c2cc1OC)-c1cc2c(cc1C3=O)OCO2 | 22.7 | > 90.7 µM | 1.3 | 16.5 µM | 523 | > 55.2 µM | 6230 | 39.2 µM | – | – | – | – | – | –
COc1cc2c(cc1OCCN1C(=O)c3cccc4cccc(c34)C1=O)N=C[C@@H]1CCCN1C2=O | 15.2 | 19.9 µM and 35.8 µM | 22.5 | 45.8 µM and 56.3 µM | 13600 | 18.2 µM and > 100 µM | 16000 | 25 µM and 35.9 µM | – | – | – | – | 14.8 µM and 45.8 µM | 20.3
CC(=O)OC1CC(C)c2c1ncnc2N1CCN(C(=O)OC(C)(C)C)CC1 (configuration not stated) | 83.5 | > 100 µM | 67.6 | > 100 µM | 39100 | > 100 µM | 19800 | 41 µM | – | – | – | – | – | –
CN([N-]C(=O)CC(=O)[N-]N(C)C(=S)c1ccccc1)C(=S)c1ccccc1.[Cu+2] | 0.0851 | 0.619 µM | < 0.0261 | 0.456 µM | < 10 | 0.0284 µM | 43.7 | 0.171 µM | – | – | – | – | – | –
COc1ccc(S(=O)(=O)N2CCCCC2)cc1NC(=O)c1[nH]c(C)c2c1CCCCC2=O | 1.45 | > 100 µM | 3.67 | > 100 µM | 666 | > 100 µM | 2490 | > 100 µM | – | – | – | – | – | –
COc1cc(C)c(N(C)C(=O)CN(C)C)cc1Nc1nc(Nc2cccc(F)c2C(N)=O)c2cc[nH]c2n1 | > 17.5 | > 25 µM | > 25 | > 25 µM | 2700 | > 25 µM | > 25000 | > 25 µM | – | – | – | – | – | –
Cc1cc(C)c(S(=O)(=O)Oc2ccccc2[N+](=O)[O-])c(C)c1 | 1.42 | 5.24 µM | 1.01 | > 27.4 µM | 2810 | > 100 µM | 239 | 0.879 µM | – | – | – | – | – | –
COc1cccc2c1C(=O)c1c(O)c3c(c(O)c1C2=O)C[C@@](O)(C(=O)COC(=O)c1cccnc1)C[C@@H]3OC1CC(N)C(O)C(C)O1 (some centres not stated) | 0.175 | 0.984 µM | 3.95 | > 100 µM | 33 | 2.08 µM | 217 | 1 µM | – | – | – | – | – | –
S=C1SC2(CCCCCC2)NC2=C1CCCCC2 | – | 47.6 µM | – | > 100 µM | – | 65 µM | – | > 100 µM | – | – | – | – | > 100 µM | –
CC(=O)c1ccc(NCn2nc(-c3ccccc3O)oc2=S)cc1 | > 100 | > 100 µM | > 100 | > 100 µM | > 100000 | > 100 µM | > 100000 | > 100 µM | – | – | – | – | – | –
c1ccc(CN2CCC3(CC2)ONC2=NCCN23)cc1 | – | – | 18.2 | > 100 µM | 71300 | > 100 µM | 91500 | > 100 µM | – | – | – | – | – | –
